Drawing on ChEMBL document CHEMBL1208701, “Structure-activity relationship of indoline-2-carboxylic acid N-(substituted)phenylamide derivatives” (Bioorg Med Chem Lett, 2010), this text covers GI50 and IC50 for 7 molecules.

Each structure is given as a SMILES string.

The subject of one test is NCI-H23. The test is described as follows: Cytotoxicity against human NCI-H23 cells. It is filed as functional.
A further test has as its system MDA-MB-231. Description: Cytotoxicity against human MDA-MB-231 cells. It counts as functional.
A further test concerns ACHN. The test is described as follows: Cytotoxicity against human ACHN cells. It is filed as functional.
Another test has as its system PC-3. The test is described as follows: Cytotoxicity against human PC3 cells. It is filed as functional.
Test [1] is described as follows: Inhibition of LPS-induced NF-kappaB transcriptional activity in mouse RAW264.7 cells. It is filed as cell-based.
For the next test, the system named is HCT-15. The test is described as follows: Cytotoxicity against human HCT15 cells. It counts as functional.
The test system of another test is NUGC-3. The test is described as follows: Cytotoxicity against human NUGC3 cells. It is filed as functional.

With `CCCCCCCCC(=O)N1c2ccccc2CC1C(=O)Nc1cc(Cl)cc(Cl)c1` (centres undefined), the GI50 was found to be 1.28 µM in the test with NCI-H23; 3.57 µM with MDA-MB-231; 1.89 µM with ACHN; 1.61 µM in the test on PC-3; 1.73 µM with HCT-15; 1.52 µM in the test with NUGC-3. In test [1], this molecule came in with an IC50 of 12.6 µM.
Turning to `CC(C)(C)C(=O)N1c2ccccc2CC1C(=O)Nc1cc(Cl)cc(Cl)c1` (centres undefined), the GI50 in the test on NCI-H23 was 3.46 µM; with MDA-MB-231, 4.97 µM; in the test with ACHN, 3.68 µM; in the test on PC-3 it was 4.18 µM; with HCT-15, 3.81 µM; in the test with NUGC-3 it was 3.35 µM. For the same molecule, the IC50 in test [1] was 14.5 µM.
Consider `Cc1ccc(S(=O)(=O)N2c3ccccc3CC2C(=O)Nc2ccc(C(F)(F)F)cc2)cc1` (centres undefined), for which the GI50 in the test on NCI-H23 is 8.97 µM; in the test on MDA-MB-231 it was > 10 µM; in the test on ACHN, > 10 µM; in the test on PC-3 it was 6.68 µM; with HCT-15 it was > 10 µM; in the test on NUGC-3, > 10 µM. Further, the IC50 in test [1] was > 100 µM.
Take `CC(=O)N1c2ccccc2CC1C(=O)Nc1ccc(C(F)(F)F)cc1` (centres undefined): the GI50 in the test on NCI-H23, in the test with MDA-MB-231, in the test on ACHN, in the test on PC-3, in the test on HCT-15 and in the test on NUGC-3 was > 10 µM each time. For the same molecule, in test [1], the IC50 was > 100 µM.
Consider `CC(C)(C)C(=O)N1c2ccccc2CC1C(=O)Nc1ccc(C(F)(F)F)cc1` (centres undefined), for which the GI50 with NCI-H23 was 3.65 µM; in the test with MDA-MB-231, 7.31 µM; in the test on ACHN it was 5.63 µM; in the test on PC-3 it was 3.89 µM; with HCT-15 it was 5.54 µM; in the test on NUGC-3 it was 6.58 µM. In addition, the IC50 in test [1] was determined as 12.7 µM.
As to `CC(=O)N1c2ccccc2CC1C(=O)Nc1cc(Cl)cc(Cl)c1` (centres undefined), the GI50 in the test on NCI-H23 was 7.68 µM; in the test on MDA-MB-231 it was > 10 µM; with ACHN, > 10 µM; in the test with PC-3, 6.37 µM; in the test with HCT-15 it was 8.68 µM; in the test on NUGC-3, 7.86 µM. For the same molecule, inhibition in test [1] was half-maximal at 34.1 µM (IC50).
Take `Cc1ccc(S(=O)(=O)N2c3ccccc3CC2C(=O)Nc2cc(Cl)cc(Cl)c2)cc1` (centres undefined): the GI50 with NCI-H23 was 7.53 µM; in the test with MDA-MB-231, > 10 µM; in the test with ACHN it was > 10 µM; with PC-3, > 10 µM; in the test with HCT-15 it was > 10 µM; in the test on NUGC-3 it was > 10 µM. Further, the IC50 in test [1] is > 100 µM.
